What was measured:
Format in all cases: cell-based, human
IRF-1 [1] = assay: TNF-alpha-induced IRF-1 protein levels (Western blot); conditions: mean ± SD
Experimental: (§1) Cell culture and treatment of HAEC: Human aortic endothelial cells (HAEC; Cambrex Bio Science Walkersville, Inc., Walkersville, Md.) are cultured in M199 supplemented with 8% FBS, 100 μg/ml heparin, 10 ng/ml endothelial growth factor, 100 μg/ml hypothalamus extract, 2 mM L-glutamine, 1% non-essential amino acids, 100 units/ml penicillin and 100 μg/ml streptomycin. HAEC are subcultured on gelatin pre-coated: 96-well tissue culture plates (Corning Incorporated; Corning, N.Y.) for viability assays and ELISA; 100-mm tissue culture dishes (BD Falcon; Franklin Lakes, N.J.) for Northern blot analyses, Western blot analyses and EMSA; 35-mm tissue culture dishes (Corning) for adhesion assays and on 24-well tissue culture plates for luciferase promoter assays (BD Falcon). All experiments are performed with confluent HAEC monolayers. Unless noted otherwise, HAEC are treated with 25 ng/ml TNF-α, in the absence or presence of C-10 or 0.25% DMSO (carrier control for C-10), for 2-24 hrs. The concentration of DMSO is held constant at 0.25% (unless indicated otherwise) for all of the C-10 conditions.
Western blot analysis: Whole cell lysates are prepared in lysis buffer (150 mM NaCl, 1% IGEPAL CA-630, 50 mM Tris-HCL pH 8.0). 20 μg of lysates are then resolved on 4-12% Bis-Tris PAGE gels under denaturing conditions using the NuPAGE Bis-Tris System (Invitrogen; Carlsbad, Calif.). Proteins are transferred to nitrocellulose membranes, which are probed with IRF-1 antibody. Subsequent binding of HRP conjugated goat anti-rabbit Ab (sc-2054, Santa Cruz Biotechnology, Inc.) is detected using Lumigen PS-3 detection reagents (Amersham Pharmacia Biotech.; Piscataway, N.J.).

IRF-1 [2] = assay: TNF-alpha-induced IRF-1 RNA levels (Northern blot); conditions: mean ± SD
Experimental: as §1
(§2) HAEC are washed with PBS and total RNA extracted using a commercial kit (RNeasy Mini Kit; Qiagen Inc.; Valencia, Calif.). 12 μg of total RNA per lane is resolved on 1% denaturing agarose gels containing 0.66M formaldehyde. Gels are capillary blotted on Nytran membranes (Schleicher and Schuell Inc.; Keene, N.H.), UV cross-linked, and used for hybridization. The probe for IRF-1 has been previously described (33). The G3PDH cDNA is from Clontech (Palo Alto, Calif.). […]; cDNAs are labeled with α-^32P-dCTP using the Ladderman Labeling Kit (Takara Biochemical Inc.; Berkeley, Calif.) (33). Northern blots are developed using a BAS 1500 Bioimaging Analyzer (Fuji Photo Film Co., Ltd. Medical Systems USA Inc.; Stanford, Calif.). Each experiment is replicated at least twice.

VCAM-1 promoter = assay: TNF-alpha-induced VCAM-1 promoter activity, dual luciferase reporter assay in HAEC; conditions: hVCAM-1(−228 to +12)-luciferase construct, mean ± SD; for inhibition at 5000 µM: Homo sapiens
Experimental: as §1
Dual Luciferase Assay: Four human VCAM-1 promoter deletion constructs of different length, −1641/+12, −288/+12, −228/+12, −85/+12 bp are amplified by PCR from human genomic DNA. Each upstream primer contained a restriction endonuclease Mlu I site located at the 5′-end of the primer. The downstream primer corresponding to the +12 end contained a restriction endonuclease Xho I site at the 5′-end. The PCR products are digested by Mlu I and Xho I (New England Biolabs Inc., Beverly, Mass.) and ligated into a similarly digested pGL3 basic luciferase reporter vector (Promega, Madison, Wis.). Cells are transfected for 24 hrs. with 400 ng of indicated constructs, or pGL3 basic luciferase reporter vector as control, using GeneJuice transfection reagent (Novagen Inc., Madison, Wis.). All cells are also transfected with phRL-TK (Int−) vector (Promega), which contains wildtype Renilla luciferase (Rluc) as an “internal” transfection control. Luciferase assays are conducted with the Dual-Luciferase Reporter Assay System (Promega) on a Lumat LB 9507 tube luminometer. In every experiment, each condition is run in triplicate wells. Each experiment is replicated at least twice.

VCAM-1 = assay: TNF-alpha-induced VCAM-1 RNA levels in aortic endothelial cells (Northern blot); conditions: aortic endothelial cells, mean ± SD
Experimental: as §1, §2

**Q.** For “1-Methyl-2-Thiomethyl-5(4)nitroimidazole”, which “% INHIBITION of TNF-alpha-induced IRF-1 Protein levels” value (IRF-1 [1]; 5 mM) is on record?
**A.** 95 ± 12%

**Q.** What about the “% INHIBITION of TNF-alpha-induced IRF-1 Protein levels” value (IRF-1 [1]; 10 :M) of the same molecule?
**A.** 46 ± 15%

**Q.** And the “% INHIBITION of TNF-alpha-induced IRF-1 Protein levels” value (IRF-1 [1]; 100 :M)?
**A.** 69 ± 10%

**Q.** And the “% INIHIBITION of TNF-alpha-induced IRF-1 RNA levels” value (shortened to “% INIHIBITION”) (IRF-1 [2]; 5 mM)?
**A.** 95 ± 12%

**Q.** What about the “% INIHIBITION” value (IRF-1 [2]; 10 :M) of the same molecule?
**A.** 26 ± 12%

**Q.** And the “% INIHIBITION” value (IRF-1 [2]; 100 :M)?
**A.** 64 ± 16%

**Q.** And the “% INHIBITION of TNF-alpha-induced VCAM-1 promoter activity” value (VCAM-1 promoter; 5.0 mM)?
**A.** 58 ± 6%

**Q.** And the “% INHIBITION of TNF-alpha-induced VCAM-1 promoter activity” value (VCAM-1 promoter; 10 :M)?
**A.** 29 ± 6%

**Q.** What about the “% INHIBITION of TNF-alpha-induced VCAM-1 promoter activity” value (VCAM-1 promoter; 100 :M) of the same molecule?
**A.** 54 ± 10%

**Q.** What about the “% INHIBITION of TNF-alpha-induced VCAM-1 RNA levels” value (VCAM-1; 5.0 mM) of the same molecule?
**A.** 92 ± 5%

**Q.** And the “% INHIBITION of TNF-alpha-induced VCAM-1 RNA levels” value (VCAM-1; 10 :M)?
**A.** 34 ± 6%

**Q.** What about the “% INHIBITION of TNF-alpha-induced VCAM-1 RNA levels” value (VCAM-1; 100 :M) of the same molecule?
**A.** 83 ± 10%

**Q.** For `Cc1ccc2[nH]c(S)nc2c1` [2-mercapto-5-methylbenzimididazole, 2-Mercapto-5-methylbenzimidazole], which “% INHIBITION of TNF-alpha-induced VCAM-1 RNA levels” value (VCAM-1; 5.0 mM) is on record?
**A.** 11 ± 7%

**Q.** Which “% INHIBITION of TNF-alpha-induced VCAM-1 promoter activity” value (VCAM-1 promoter; 10 :M) does the source give for `Sc1nc2ccccc2[nH]1` [2-mercaptobenzimidazole, 2-Mercaptobenzimidazole] here?
**A.** 0%

**Q.** And the “% INHIBITION of TNF-alpha-induced VCAM-1 promoter activity” value (VCAM-1 promoter; 100 :M)?
**A.** 0%

**Q.** What about the inhibition at 5000 µM (VCAM-1 promoter; 5.0 mM) of the same molecule?
**A.** 30 ± 4%

**Q.** And the “% INHIBITION of TNF-alpha-induced VCAM-1 RNA levels” value (VCAM-1; 5.0 mM)?
**A.** 26 ± 10%

**Q.** What about the “% INHIBITION of TNF-alpha-induced VCAM-1 RNA levels” value (VCAM-1; 10 :M) of the same molecule?
**A.** 0%

**Q.** And the “% INHIBITION of TNF-alpha-induced VCAM-1 RNA levels” value (VCAM-1; 100 :M)?
**A.** 0%

**Q.** Which “% INIHIBITION” value (IRF-1 [2]; 5 mM) does the source give for `Sc1ncc[nH]1` [2-mercaptoimidazole, 2-Mercaptoimidazole] here?
**A.** 0%

**Q.** What about the “% INIHIBITION” value (IRF-1 [2]; 10 :M) of the same molecule?
**A.** 0%

**Q.** What about the “% INIHIBITION” value (IRF-1 [2]; 100 :M) of the same molecule?
**A.** 0%

**Q.** And the inhibition at 5000 µM (VCAM-1 promoter; 5.0 mM)?
**A.** 0%

**Q.** What about the “% INHIBITION of TNF-alpha-induced VCAM-1 RNA levels” value (VCAM-1; 5.0 mM) of the same molecule?
**A.** None

**Q.** What about the “% INHIBITION of TNF-alpha-induced VCAM-1 RNA levels” value (VCAM-1; 10 :M) of the same molecule?
**A.** None

**Q.** And the “% INHIBITION of TNF-alpha-induced VCAM-1 RNA levels” value (VCAM-1; 100 :M)?
**A.** None

**Q.** `Cc1cnc(S)n1C` [5-methylmethimazole, 5-Methylmethimazole] was tested. Which “% INHIBITION of TNF-alpha-induced VCAM-1 promoter activity” value (VCAM-1 promoter; 10 :M) did it give?
**A.** 0%

**Q.** What about the “% INHIBITION of TNF-alpha-induced VCAM-1 promoter activity” value (VCAM-1 promoter; 100 :M) of the same molecule?
**A.** 0%

**Q.** What about the inhibition at 5000 µM (VCAM-1 promoter; 5.0 mM) of the same molecule?
**A.** 14 ± 8%

**Q.** How did the “% INHIBITION of TNF-alpha-induced IRF-1 Protein levels” value (IRF-1 [1]; 10 :M) turn out when `Cn1ccnc1S` [Methimazole, 1-Methylimidazole-2-thiol] was run?
**A.** 0%

**Q.** What about the “% INHIBITION of TNF-alpha-induced IRF-1 Protein levels” value (IRF-1 [1]; 100 :M) of the same molecule?
**A.** 0%

**Q.** And the inhibition at 5000 µM (IRF-1 [1]; Homo sapiens, 5 mM)?
**A.** 17 ± 6%

**Q.** What about the “% INIHIBITION” value (IRF-1 [2]; 5 mM) of the same molecule?
**A.** 27 ± 12%

**Q.** What about the “% INIHIBITION” value (IRF-1 [2]; 10 :M) of the same molecule?
**A.** 0%

**Q.** What about the “% INIHIBITION” value (IRF-1 [2]; 100 :M) of the same molecule?
**A.** 0%

**Q.** And the inhibition at 5000 µM (VCAM-1 promoter; 5.0 mM)?
**A.** 0%

**Q.** And the “% INHIBITION of TNF-alpha-induced VCAM-1 RNA levels” value (VCAM-1; 5.0 mM)?
**A.** 20 ± 10%

**Q.** What about the “% INHIBITION of TNF-alpha-induced VCAM-1 RNA levels” value (VCAM-1; 10 :M) of the same molecule?
**A.** 0%

**Q.** And the “% INHIBITION of TNF-alpha-induced VCAM-1 RNA levels” value (VCAM-1; 100 :M)?
**A.** 0%

**Q.** How did the “% INIHIBITION” value (IRF-1 [2]; 5 mM) turn out when `Cn1ccn(C)c1=S` [N-methylmethimazole, N-Methylmethimazole] was run?
**A.** 75 ± 14%

**Q.** And the “% INIHIBITION” value (IRF-1 [2]; 10 :M)?
**A.** 0%

**Q.** What about the “% INIHIBITION” value (IRF-1 [2]; 100 :M) of the same molecule?
**A.** 34 ± 15%

**Q.** And the “% INHIBITION of TNF-alpha-induced VCAM-1 promoter activity” value (VCAM-1 promoter; 10 :M)?
**A.** 6 ± 2%

**Q.** What about the “% INHIBITION of TNF-alpha-induced VCAM-1 promoter activity” value (VCAM-1 promoter; 100 :M) of the same molecule?
**A.** 44 ± 11%

**Q.** What about the inhibition at 5000 µM (VCAM-1 promoter; 5.0 mM) of the same molecule?
**A.** 31 ± 3%

**Q.** And the “% INHIBITION of TNF-alpha-induced VCAM-1 RNA levels” value (VCAM-1; 5.0 mM)?
**A.** 47 ± 12%

**Q.** And the “% INHIBITION of TNF-alpha-induced VCAM-1 RNA levels” value (VCAM-1; 10 :M)?
**A.** 0%

**Q.** And the “% INHIBITION of TNF-alpha-induced VCAM-1 RNA levels” value (VCAM-1; 100 :M)?
**A.** 31 ± 10%

— US20050209295A1, “Methimazole derivatives and tautomeric cyclic thiones to inhibit cell adhesion” (priority 2004, published 2005)
